Source: patent US11505592B2, “Diagnosis and therapy of multiple sclerosis” (PRINDEX S.R.L., priority 2015, dated 2022)

Legend:
MS IgG = assay: Indirect ELISA of MS IgG binding to receptor peptides; design: species or system human; settings: 200 μg immunoglobulins
Method: FIG. 6: Dose-response curves of the interaction between MS sera and DDSK peptide. (A) Sera of Multiple Sclerosis patients and Control (control group is defined in material and method below) (200 μg) were incubated with different concentrations (50-100-250 μM) of peptide DDSK. For the detection, inventors used a secondary antibody anti human IgG conjugated with HRP and (3,3′,5,5′-Tetramethylbenzidine) TMB solution that was added for each well and incubated for 15-30 min. Equal volume of stopping solution (2 M H2SO4) was added to the plate and absorbance (optical density) of plate was read at 450 nm. The statistical analysis derived from 9 experiments. Values are mean±SEM. *P<0.05 MS vs CTRL (B) Linear representation of dose-response curve Values are mean±SEM. *P<0.05 MS vs CTRL.
FIGS. 7A, 7B, 7C and 7D: MS sera recognize specially receptor's peptides. […] Equal volume of stopping solution (2 M H2SO4) was added to the plate and absorbance (optical density) of plate was read at 450 nm. […]
A. Sera of Multiple Sclerosis patients and Control (200 μg) were incubated in absence (uncoated) or presence of 100 μM of DDSK peptide. […] Equal volume of stopping solution (2 M H2SO4) was added to the plate and absorbance (optical density) of plate was read at 450 nm. […]
Diluted peptide (20 μg/ml) was coated to the wells of a PVC microtiter plate and incubated at 4° C. overnight. […] For the detection, we used a secondary antibody anti human (recognized constant region of the patient antibody conjugated with HRP and (3,3′,5,5′-Tetramethylbenzidine) TMB solution that was added for each well and incubated for 15-30 min. Equal volume of stopping solution (2 M H2SO4) was added to the plate and absorbance (optical density) of plate was read at 450 nm.
To evaluate the peptide concentration to use for ELISA assay we performed a dose-response curve. […] (named DDSK in the figures) and the absorbance (optical density) of plate was read at 450 nm. […]

[1] = test system: 5HT2a receptor downstream signaling in MO3-13 cells; assay: Western blotting of proteins downstream of the 5HT2a receptor in MO3-13 cells; format: cell-based, human
Method: The same membrane was also incubated with α-Tubulin antibody to show the protein loading.
Western blotting analysis of DUOX1/2 expression levels in MO3-13 cells harvested for 18 h in medium containing 0.2% FBS, preincubated with DDSK (50 uM) for 30 min in serum-free medium and then stimulated for 30 min with IgG (200 μg/ml) purified from serum of Control (IgCtr) or MS (IgMS) patients.
(§1) Western blotting analysis of P-ERK1/2 expression levels in MO3-13 cells harvested for 18 h in medium containing 0.2% FBS, preincubated with DDSK (50 uM) for 30 min in serum-free medium and then stimulated for 30 min with IgG (200 μg/ml) purified from serum of Control (Ig Ctr) or MS (IgMS) patients.
Western blotting analysis of NOX3 expression levels in MO3-13 cells harvested for 18 h in medium containing 0.2% FBS, preincubated with DDSK (50 uM) for 30 min in serum-free medium and then stimulated for30 min with IgG (200 μg/ml) purified from serum of Control (IgCtr) or MS (IgMS) patients.
as §1, with “of H-Ras” for “of P-ERK1/2”, “stimulated for30” for “stimulated for 30”, “patients. The same membrane was incubated with α-Tubulin antibody to show the protein loading.” for “patients.”
Total cells lysates were obtained in RIPA buffer (50 mM Tris-HCl, pH 7.5, NaCl 150 mM, 1% NP40, 0.5% deoxycholate, 0.1% SDS) containing 2.5 mM Na-pyrophosphate, 1 mM β-glycerophosphate, 1 mM NaVO4, 1 mM NaF, 0.5 mM PMSF, and a cocktail of protease inhibitors (Roche, USA). The cells were kept for 15 min at 4° C. and disrupted by repeated aspiration through a 21-gauge needle. Cell lysates were centrifuged for 10 min at 13000 rpm and the pellets were discarded. Fifty micrograms of total proteins were subjected to SDS-PAGE under reducing conditions. […] Membranes were placed in 5% non-fat milk in […], 0.5% Tween 20 (TBST) at 4° C. for 2 h to block the nonspecific binding sites. Filters were incubated with specific antibodies before being washed three times in TBST and then incubated with a peroxidase-conjugated secondary antibody (Santa Cruz). After washing with TBST, peroxidase activity was detected with the ECL system (GE-Healthcare, UK).
The filters were also probed with an anti α-tubulin antibody (Sigma, USA). […] Densitometric values were normalized to α-tubulin.

[2] = 50 uM peptide 30 min, then IgMS 200 μg/ml 30 min

- binding of MS IgG to peptide respect to scrambled (MS IgG; 100 μM peptide): bind specifically
- peptide concentration at which MS IgG bind the peptide (MS IgG; dose-response 50-100-250 μM peptide, absorbance 450 nm): higher than 50 μM
Sequence: DDSKVFKEGS
- effect of peptide preincubation on IgMS-increased DUOX1/2 protein levels [1, 2]: reverted the effect
- effect of peptide preincubation on IgMS-increased HaRas protein levels [1, 2]: reverted the effect
- effect of peptide preincubation on IgMS-increased NOX3 protein levels [1, 2]: reverted the effect
- effect of peptide preincubation on IgMS-increased P-ERK1/2 protein levels [1, 2]: reverted the effect
- effect of peptide on protein levels (DUOX1/2, P-ERK1/2, NOX3, HaRas) in cells incubated with IgG from control subjects ([1]; 50 uM peptide, IgG control 200 μg/ml): did not significantly modify
